Assay results as given in US4226863A, “7-Methoxy cephalosporins” (Sumitomo Chemical Company, Limited, priority 1975, dated 1980).
Converted amounts (≈) assume the structure as drawn.

Assays:
Format in all cases: cell-based
Serratia No. 115 = assay: antimicrobial activity, minimum inhibitory concentration, Serratia No. 115
Method: (§1) The antimicrobial activities of the compounds prepared in the previous Examples were determined in a usual manner and the minimum inhibitory concentrations (in terms of μg/ml) are set forth in the Table below.

[1] = tested on: Enterobacter aerogenes No. 101; assay: antimicrobial activity, minimum inhibitory concentration, Enterobacter aerogenes No. 101; conditions: Klebsiella aerogenes
Method: as §1

Proteus vulgaris HX 19 = assay: antimicrobial activity, minimum inhibitory concentration, Proteus vulgaris HX 19; conditions: HX19
Method: as §1

[2] = tested on: Pseudomonas aeruginosa IID 5142; assay: antimicrobial activity, minimum inhibitory concentration, Pseudomonas aeruginosa IID 5142; conditions: IID5142
Method: as §1

Escherichia coli NIHJ = assay: antimicrobial activity, minimum inhibitory concentration, Escherichia coli NIHJ

Row | MIC (Serratia No. 115) [µg/mL] | MIC [1] [µg/mL] | MIC (Proteus vulgaris HX 19) [µg/mL] | MIC [2] [µg/mL] | MIC (Escherichia coli NIHJ) [µg/mL] | Compound
1 | 3.13 (≈ 4.6 µM) | 3.13 (≈ 4.6 µM) | 0.2 (≈ 0.294 µM) | 1.56 (≈ 2.3 µM) | 0.78 (≈ 1.15 µM) | CO[C@@]1(NC(=O)[C@H](NC(=O)c2cnc3cccnc3c2O)c2ccc(O)cc2)C(=O)N2C(C(=O)O)=C(CSc3nnnn3C)CS[C@@H]21 [Example 2, 3-[(1-Methyltetrazol-5-yl)thiomethyl]-7α-methoxy-7β-[D-2-(4-hydroxy-1,5-naphthyridine-3-carbonamido)-2-(p-hydroxyphenyl)acetamido]-3-cephem-4-carboxylic Acid]
2 | 12.5 (≈ 18.8 µM) | 6.25 (≈ 9.4 µM) | 0.78 (≈ 1.17 µM) | 6.25 (≈ 9.4 µM) | 6.25 (≈ 9.4 µM) | CO[C@@]1(NC(=O)C(NC(=O)c2cnc3cncnc3c2O)c2ccccc2)C(=O)N2C(C(=O)O)=C(CSc3nnnn3C)CS[C@@H]21 (some centres unmarked) [Example 7]
3 | 100 (≈ 180 µM) | 25 (≈ 44.9 µM) | 0.39 (≈ 0.701 µM) | 6.25 (≈ 11.2 µM) | 12.5 (≈ 22.5 µM) | CO[C@@]1(NC(=O)C(NC(=O)c2cnccc2O)c2ccccc2)C(=O)N2C(C(=O)O)=C(COC(C)=O)CS[C@@H]21 (some centres unmarked) [Example 8]
4 | 50 (≈ 79.4 µM) | 12.5 (≈ 19.9 µM) | 0.39 (≈ 0.619 µM) | 12.5 (≈ 19.9 µM) | 12.5 (≈ 19.9 µM) | CO[C@@]1(NC(=O)C(NC(=O)c2cncnc2O)c2ccc(O)cc2)C(=O)N2C(C(=O)O)=C(CSc3nnnn3C)CS[C@@H]21 (some centres unmarked) [Example 10]
5 | 100 (≈ 159 µM) | 25 (≈ 39.7 µM) | 0.78 (≈ 1.24 µM) | 25 (≈ 39.7 µM) | 12.5 (≈ 19.9 µM) | CO[C@@]1(NC(=O)C(NC(=O)c2ccnnc2O)c2ccc(O)cc2)C(=O)N2C(C(=O)O)=C(CSc3nnnn3C)CS[C@@H]21 (some centres unmarked) [Example 12]
6 | 100 (≈ 155 µM) | 25 (≈ 38.7 µM) | 0.78 (≈ 1.21 µM) | 25 (≈ 38.7 µM) | 12.5 (≈ 19.4 µM) | CO[C@@]1(NC(=O)C(NC(=O)c2ccnnc2O)c2ccc(O)cc2)C(=O)N2C(C(=O)O)=C(CSc3nnc(C)s3)CS[C@@H]21 (some centres unmarked) [Example 13]
7 | 100 (≈ 151 µM) | 25 (≈ 37.7 µM) | 1.56 (≈ 2.35 µM) | 25 (≈ 37.7 µM) | 12.5 (≈ 18.8 µM) | CO[C@@]1(NC(=O)C(NC(=O)c2ccnnc2O)c2ccc(O)cc2)C(=O)N2C(C(=O)O)=C(CSc3n[nH]c(=S)s3)CS[C@@H]21 (some centres unmarked) [Example 14]
8 | 50 (≈ 86.9 µM) | 25 (≈ 43.4 µM) | 1.56 (≈ 2.71 µM) | 6.25 (≈ 10.9 µM) | 12.5 (≈ 21.7 µM) | CO[C@@]1(NC(=O)C(NC(=O)c2cnccc2O)c2ccccc2)C(=O)N2C(C(=O)[O-])=C(C[n+]3ccccc3)CS[C@@H]21 (some centres unmarked) [Example 16]
9 | 6.25 (≈ 8.79 µM) | 6.25 (≈ 8.79 µM) | 0.2 (≈ 0.281 µM) | 3.13 (≈ 4.4 µM) | 3.13 (≈ 4.4 µM) | COc1cnc2c(O)c(C(=O)NC(C(=O)N[C@]3(OC)C(=O)N4C(C(=O)O)=C(CSc5nnnn5C)CS[C@@H]43)c3ccc(O)cc3)cnc2n1 (some centres unmarked) [Example 17]
10 | 50 (≈ 74.4 µM) | 12.5 (≈ 18.6 µM) | 0.78 (≈ 1.16 µM) | 6.25 (≈ 9.31 µM) | 12.5 (≈ 18.6 µM) | CO[C@@]1(NC(=O)C(NC(=O)c2cnc3nc(SC)ncc3c2O)c2ccc(O)cc2)C(=O)N2C(C(=O)O)=C(COC(N)=O)CS[C@@H]21 (some centres unmarked) [Example 18]
11 | 12.5 (≈ 16.1 µM) | 6.25 (≈ 8.06 µM) | 0.39 (≈ 0.503 µM) | 3.13 (≈ 4.04 µM) | 1.56 (≈ 2.01 µM) | CNc1nnc(SCC2=C(C(=O)O)N3C(=O)[C@](NC(=O)C(NC(=O)c4cnc5ccc(OC)nc5c4O)c4ccc(O)c(Cl)c4)(OC)[C@H]3SC2)s1 (some centres unmarked) [Example 21]
12 | 25 (≈ 34 µM) | 6.25 (≈ 8.49 µM) | 0.39 (≈ 0.53 µM) | 3.13 (≈ 4.25 µM) | 3.13 (≈ 4.25 µM) | CCN(CC)c1ccc2ncc(C(=O)NC(C(=O)N[C@]3(OC)C(=O)N4C(C(=O)O)=C(CSc5cnn[nH]5)CS[C@@H]43)c3ccc(O)cc3)c(O)c2n1 (some centres unmarked) [Example 22]
13 | 100 (≈ 174 µM) | 50 (≈ 87.2 µM) | 0.78 (≈ 1.36 µM) | 12.5 (≈ 21.8 µM) | 12.5 (≈ 21.8 µM) | CO[C@@]1(NC(=O)C(NC(=O)c2cccnc2O)c2ccc(O)cc2)C(=O)N2C(C(=O)O)=C(COC(N)=O)CS[C@@H]21 (some centres unmarked) [Example 23]

Further lines, the molecule ahead of its results:

Row | Compound | MIC (Serratia No. 115) [µg/mL] | MIC [1] [µg/mL] | MIC (Proteus vulgaris HX 19) [µg/mL] | MIC [2] [µg/mL] | MIC (Escherichia coli NIHJ) [µg/mL]
14 | CO[C@@]1(NC(=O)[C@H](NC(=O)c2cnc3cccnc3c2O)c2ccccc2)C(=O)N2C(C(=O)O)=C(COC(C)=O)CS[C@@H]21 [Example 1, 3-Acetoxymethyl-7α-methoxy-7β-[D-2-(4-hydroxy-1,5-naphthyridine-3-carbonamido)-2-phenylacetamido]-3-cephem-4-carboxylic Acid] | 50 (≈ 82.3 µM) | 6.25 (≈ 10.3 µM) | 0.39 (≈ 0.642 µM) | 1.56 (≈ 2.57 µM) | 3.13 (≈ 5.15 µM)
15 | CO[C@@]1(NC(=O)[C@H](NC(=O)c2cnc3cccnc3c2O)c2ccc(O)cc2)C(=O)N2C(C(=O)O)=C(CSc3cnn[nH]3)CS[C@@H]21 [Example 3, 3-[(Triazol-5-yl)thiomethyl]-7α-methoxy-7β-[D-2-(4-hydroxy-1,5-naphthyridine-3-carbonamido)-2-(p-hydroxyphenyl)acetamido]-3-cephem-4-carboxylic Acid] | 25 (≈ 37.6 µM) | 6.25 (≈ 9.4 µM) | 0.78 (≈ 1.17 µM) | 3.13 (≈ 4.71 µM) | 3.13 (≈ 4.71 µM)
16 | CO[C@@]1(NC(=O)[C@H](NC(=O)c2cnc3cccnc3c2O)c2ccccc2)C(=O)N2C(C(=O)[O-])=C(C[n+]3ccccc3)CS[C@@H]21 [Example 4, 3-Pyridiniummethyl-7α-methoxy-7β-[D-2-(4-hydroxy-1,5-naphthyridine-3-carbonamido)-2-phenylacetamido]-3-cephem-4-carboxylate] | 25 (≈ 39.9 µM) | 12.5 (≈ 19.9 µM) | 0.78 (≈ 1.24 µM) | 6.25 (≈ 9.97 µM) | 3.13 (≈ 4.99 µM)
17 | CO[C@@]1(NC(=O)[C@H](NC(=O)c2cnc3cccnc3c2O)c2ccc(O)cc2)C(=O)N2C(C(=O)O)=C(COC(N)=O)CS[C@@H]21 [Example 5, 3-Carbamoyloxymethyl-7α-methoxy-7β-[D-2-(4-hydroxy-1,5-naphthyridine-3-carbonamido)-2-(p-hydroxyphenyl)-acetamido]-3-cephem-4-caboxylic Acid] | 50 (≈ 80.1 µM) | 6.25 (≈ 10 µM) | 0.39 (≈ 0.624 µM) | 3.13 (≈ 5.01 µM) | 3.13 (≈ 5.01 µM)
18 | CO[C@@]1(NC(=O)C(NC(=O)c2cnccc2O)c2ccc(O)cc2)C(=O)N2C(C(=O)O)=C(CSc3nnnn3C)CS[C@@H]21 (some centres unmarked) [Example 9] | 50 (≈ 79.5 µM) | 12.5 (≈ 19.9 µM) | 0.39 (≈ 0.62 µM) | 6.25 (≈ 9.94 µM) | 12.5 (≈ 19.9 µM)
19 | CO[C@@]1(NC(=O)C(NC(=O)c2cncnc2O)c2ccccc2)C(=O)N2C(C(=O)O)=C(COC(N)=O)CS[C@@H]21 (some centres unmarked) [Example 11] | 100 (≈ 179 µM) | 50 (≈ 89.5 µM) | 0.78 (≈ 1.4 µM) | 12.5 (≈ 22.4 µM) | 12.5 (≈ 22.4 µM)
20 | CO[C@@]1(NC(=O)C(NC(=O)c2cnc3nc(C)ccc3c2O)c2ccc(O)cc2)C(=O)N2C(C(=O)O)=C(COC(C)=O)CS[C@@H]21 (some centres unmarked) [Example 15] | 100 (≈ 157 µM) | 50 (≈ 78.4 µM) | 1.56 (≈ 2.45 µM) | 12.5 (≈ 19.6 µM) | 12.5 (≈ 19.6 µM)
21 | CO[C@@]1(NC(=O)C(NC(=O)c2cnc3nc(SC)ncc3c2O)c2ccc(O)cc2)C(=O)N2C(C(=O)O)=C(CSc3ccc(O)nn3)CS[C@@H]21 (some centres unmarked) [Example 19] | 25 (≈ 33.8 µM) | 12.5 (≈ 16.9 µM) | 0.78 (≈ 1.06 µM) | 3.13 (≈ 4.24 µM) | 6.25 (≈ 8.46 µM)
22 | CO[C@@]1(NC(=O)C(NC(=O)c2cnc3ccc(SC)nc3c2O)c2ccc(O)c(Cl)c2)C(=O)N2C(C(=O)O)=C(CSc3nnc(CO)s3)CS[C@@H]21 (some centres unmarked) [Example 20] | 6.25 (≈ 7.89 µM) | 6.25 (≈ 7.89 µM) | 0.39 (≈ 0.492 µM) | 3.13 (≈ 3.95 µM) | 3.13 (≈ 3.95 µM)
